Assay results reported in patent US20260374782A1, “NEW COMPOUNDS, PROCESSES FOR PREPARING THE SAME AND THEIR USE AS DRUGS” (B&A ONCOMEDICAL, priority 2022, published 2026).

Molecular target: T1, NKCC1 (Homo sapiens, UniProt P55011)
T1 construct: endogenous in cells; host or cells: native HEK293 cells
T1 sequence (P55011 1-1212): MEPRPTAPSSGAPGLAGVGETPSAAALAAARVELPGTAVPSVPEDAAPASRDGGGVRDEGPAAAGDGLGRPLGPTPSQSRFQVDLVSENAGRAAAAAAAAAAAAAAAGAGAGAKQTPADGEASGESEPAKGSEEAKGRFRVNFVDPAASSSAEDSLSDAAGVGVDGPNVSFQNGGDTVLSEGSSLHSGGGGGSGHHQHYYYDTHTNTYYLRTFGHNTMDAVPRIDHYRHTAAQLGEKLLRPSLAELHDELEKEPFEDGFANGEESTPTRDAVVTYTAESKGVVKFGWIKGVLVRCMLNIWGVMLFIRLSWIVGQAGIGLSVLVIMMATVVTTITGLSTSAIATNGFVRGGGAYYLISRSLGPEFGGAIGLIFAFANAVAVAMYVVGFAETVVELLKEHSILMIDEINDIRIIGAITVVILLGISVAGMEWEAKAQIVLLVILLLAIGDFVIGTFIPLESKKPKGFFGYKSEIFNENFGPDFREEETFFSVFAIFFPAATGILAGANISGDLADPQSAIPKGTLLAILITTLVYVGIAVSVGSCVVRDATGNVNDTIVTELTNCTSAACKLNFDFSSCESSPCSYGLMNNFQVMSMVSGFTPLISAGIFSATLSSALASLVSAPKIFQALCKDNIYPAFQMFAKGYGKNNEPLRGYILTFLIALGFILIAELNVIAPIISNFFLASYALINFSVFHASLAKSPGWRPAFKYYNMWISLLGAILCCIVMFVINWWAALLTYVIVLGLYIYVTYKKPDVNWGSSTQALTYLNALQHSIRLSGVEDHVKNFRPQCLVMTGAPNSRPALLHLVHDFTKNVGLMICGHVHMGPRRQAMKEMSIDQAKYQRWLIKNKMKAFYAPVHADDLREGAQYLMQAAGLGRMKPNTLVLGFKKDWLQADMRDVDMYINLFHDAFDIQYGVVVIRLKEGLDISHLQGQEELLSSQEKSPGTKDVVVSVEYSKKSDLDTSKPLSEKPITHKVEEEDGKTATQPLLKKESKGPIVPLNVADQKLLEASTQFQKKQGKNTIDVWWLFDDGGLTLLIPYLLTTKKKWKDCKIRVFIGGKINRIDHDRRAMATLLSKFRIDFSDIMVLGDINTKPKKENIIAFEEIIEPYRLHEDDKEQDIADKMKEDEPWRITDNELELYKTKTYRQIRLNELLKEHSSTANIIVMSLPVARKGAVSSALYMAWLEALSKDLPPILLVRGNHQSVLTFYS
Test: NKCC1-mediated K+ influx (83Rb tracer uptake) in native HEK293 cells, hypertonic saline, 100 μM ouabain
Type: cell-based
Details: HEK293, no drug = 1000, 20 μM bumetanide = 0; for inhibition at 2 µM: read-out: NKCC1 mediated flux inhibition at 2 μM (%); for inhibition at 20 µM: read-out: NKCC1 mediated flux inhibition at 20 μM (%)
Procedure, shortened: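 Native cells in slightly hypertonic saline with 100 μM ouabain; 15 min preincubation then 15 min 83Rb uptake (0.25 μCi/mL), scintillation counting normalized to protein. Compounds at 2 μM and 20 μM; flux scaled 1000 (no drug) to 0 (20 μM bumetanide), triplicate dishes.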

Row | Compound | inhibition at 2 µM [%] | inhibition at 20 µM [%]
1 | CCCCNc1cc(C(=O)O)cc(S(=N)(=O)Nc2ccccc2)c1Oc1ccccc1 (stereo not shown) [Compound 57, 3-(anilinosulfonimidoyl)-5-(butylamino)-4-phenoxy-benzoic acid] | 50 to 75 | ≥ 75
2 | CCCCNc1cc(C(=O)O)cc(S(=N)(=O)NC)c1Oc1ccccc1 (stereo not shown) [Compound 51, 3-(butylamino)-5-(methylaminosulfonimidoyl)-4-phenoxy-benzoic acid] | 50 to 75 | ≥ 75
